This note sets out measurements from ChEMBL document CHEMBL1201862, “PubChem BioAssay data set” (2004).

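Results reflect a 48-hour exposure of cells in 96-well plates to compound at five concentrations. GI50 is the concentration that inhibits growth by half.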 Calls of active or inactive are those of the source. No stated cut-off is given here; in the data, active = GI50 up to about 1.1 µM and inactive = higher. Some results are limits rather than exact numbers.

Test systems include LOX IMVI; NCI-H226; CAKI-1; KM12; M14; ACHN; HL-60; UACC-257; MOLT-4; RPMI-8226; T47D; SF-295; BT-549; NCI-H522; 786-0; HCT-15; UO-31; RXF 393; OVCAR-8; PC-3.
Test in all cases: growth of human tumour cells (NCI), 48 h

As for `c1ccc2nc3c(nc2c1)sc1ccccc13`, the GI50 was 19.3 µM (inactive) with LOX IMVI; 18.6 µM (inactive) in the assay on NCI-H226; 9.25 µM (inactive) with CAKI-1; 47.4 µM (inactive) in the assay on KM12; > 100 µM (inactive) in the assay with M14; 14.3 µM (inactive) in the assay with ACHN. Besides, the GI50 is > 100 µM (inactive) with HL-60; 37.2 µM (inactive) in the assay with UACC-257; 21.8 µM (inactive) with MOLT-4; > 100 µM (inactive) in the assay on RPMI-8226; > 100 µM (inactive) in the assay with T47D; 30.7 µM (inactive) in the assay on SF-295. The GI50 is 39.2 µM (inactive) in the assay with BT-549; 24.2 µM (inactive) in the assay with NCI-H522; 23 µM (inactive) with 786-0; 58.9 µM in the assay on HCT-15; 23.7 µM (inactive) in the assay with UO-31.
Take `CCCCN(CC)C(=O)C1=C(C)NC(C)=C(C(=O)N(CC)CCCC)C1`: the GI50 is > 100 µM (inactive) with LOX IMVI; 88.9 µM (inactive) in the assay with NCI-H226; > 100 µM (inactive) in the assay on CAKI-1; > 100 µM (inactive) with KM12; > 100 µM (inactive) in the assay with M14; > 100 µM (inactive) with ACHN. Further, the GI50 was 89.1 µM (inactive) with HL-60; > 100 µM (inactive) in the assay with UACC-257; > 100 µM (inactive) in the assay on MOLT-4; 62.1 µM (inactive) in the assay with T47D; > 100 µM (inactive) in the assay with SF-295; > 100 µM (inactive) in the assay on BT-549. Moreover, the GI50 in the assay on RXF 393 is > 100 µM (inactive); in the assay on 786-0 it was > 100 µM (inactive); with OVCAR-8, > 100 µM (inactive); in the assay on HCT-15 it was above 100 µM; in the assay on UO-31 it was > 100 µM (inactive).
On to `O=P1(c2ccccc2)C(c2ccccc2)CCC1c1ccccc1` (stereo not given), for which the GI50 in the assay on LOX IMVI is 41.1 µM (inactive); with NCI-H226, 91.8 µM (inactive); in the assay with CAKI-1, 16.4 µM (inactive); with KM12 it was 30 µM (inactive); in the assay with M14, 68.5 µM (inactive); in the assay with HL-60, 10.2 µM (inactive). Further, the GI50 was 71.1 µM (inactive) in the assay with UACC-257; 32.2 µM (inactive) with MOLT-4; 22.1 µM (inactive) with RPMI-8226; 33.6 µM (inactive) in the assay with PC-3; 32.1 µM (inactive) in the assay on SF-295; 29.7 µM (inactive) with BT-549. Further, the GI50 with NCI-H522 was 26.4 µM (inactive); in the assay on RXF 393 it was 96.8 µM (inactive); with 786-0 it was > 100 µM (inactive); with OVCAR-8, 91.4 µM (inactive); in the assay with HCT-15, 28.8 µM; in the assay with UO-31, 66.1 µM (inactive).
Take `[N-]=[N+]=NC1=NNC2(C(=O)N1)c1ccccc1-c1ccccc12`: the GI50 with LOX IMVI, with NCI-H226, in the assay on CAKI-1, in the assay on M14, in the assay with ACHN and in the assay on HL-60 was > 100 µM (inactive) each time. The GI50 in the assay on UACC-257, with PC-3, in the assay with SF-295, in the assay with BT-549, in the assay on NCI-H522 and in the assay on RXF 393 was > 100 µM (inactive) in each case. For the same molecule, the GI50 with 786-0 is > 100 µM (inactive); in the assay on OVCAR-8 it was > 100 µM (inactive); with HCT-15, above 100 µM; in the assay with UO-31, > 100 µM (inactive).
As for `O=c1cc(N2CCOCC2)[nH]c(=O)n1-c1cccc(C(F)(F)F)c1`, the GI50 with LOX IMVI, with NCI-H226, in the assay on CAKI-1, in the assay on KM12, with M14 and in the assay on ACHN was > 100 µM (inactive) in each case. Moreover, the GI50 in the assay on HL-60, in the assay with UACC-257, with MOLT-4, in the assay on T47D, in the assay on SF-295 and in the assay on BT-549 was > 100 µM (inactive) throughout. Besides, the GI50 is > 100 µM (inactive) in the assay with NCI-H522; > 100 µM (inactive) with 786-0; > 100 µM (inactive) in the assay on OVCAR-8; above 100 µM with HCT-15; > 100 µM (inactive) in the assay on UO-31.
